Test results reported in patent US20210015850A1, “COMPOSITION FOR IMPROVING INTESTINAL BARRIER FUNCTION” (SUNTORY HOLDINGS LIMITED, priority 2017, published 2021).
Read-outs that look alike come from different tables or passages of the source.

Test system: Caco-2 cells
Assay: Intestinal barrier function improvement: suppression of cytokine-induced TEER reduction in Caco-2 monolayer
Format: cell-based, human
Settings: for inhibition at 10 µM: Homo sapiens, read-out: TEER reduction suppression ratio (%); for Relative value of TEER reduction suppression ratio of gallate type compound (non-gallate type compound taken as 1): 10 μM, gallate vs non-gallate in the same evaluation
Protocol: Caco-2 cells were cultured for three weeks at 37° C. in Transwell (manufactured by Millicell Corporation) using DMEM (Dulbecco's modified Eagle's medium). A medium was removed from a plate of cultured Caco-2 cells, and the well was washed 3 times with serum-free DMEM. The well was filled with the medium. Then, the transepithelial electrical resistance (TEER) of Caco-2 monolayer cells was measured by Millicell-ERS (manufactured by Millipore Corporation). Cells (TEER≥1000 Ω·cm^2) determined that a sufficient tight junction was formed were selected, and used for the next screening. Then, to test solutions (media) on both apical and basolateral membrane sides, a sample, TNFα (40 ng/mL), IL-1β (20 ng/mL), and IFNγ (10 ng/mL) were added, followed by cultivating for 48 hours. The sample was dissolved in dimethyl sulfoxide (DMSO), and the solution was then added to the test solutions. In this case, a well to which inflammatory cytokine (TNFα, IL-1β, and IFNγ) and the sample were not added was provided as normal. A well to which inflammatory cytokine was added and the sample was not added was provided as control. After the cultivation, TEER was measured again, to evaluate whether the sample suppressed the reduction (decrease) of TEER due to the inflammatory cytokine.
The TEER reduction suppression ratio (%) due to the sample was determined according to the following formula from the TEER values of the well to which the sample was added, normal, and control.
TEER reduction suppression ratio (%)−100×((TEER of well to which sample is added)−(TEER of control))/((TEER of normal)−(TEER of control))
In this evaluation system, as the TEER reduction suppression ratio (%) is higher, an intestinal barrier function improvement effect is higher.
The intestinal barrier function improvement action was evaluated by the same method (the method for evaluating intestinal barrier function improvement action described in Example 4) as that in Example 4. In Example 5, the sample was added into the test solution so that a sample concentration was set to 10 μmol/L. The TEER reduction suppression ratio (%) of the sample was obtained according to the formula from the TEER values of a well to which the sample was added, normal, and control in the same manner as in Example 4.

[1] = Caco-2, 48 h, sample 10 μM (10 μmol/L), Example 5, Table 4
[2] = sample 10 μM (10 μmol/L), Example 5, Table 4
[3] = Caco-2, sample 10 μM, TNFα 40 ng/mL, IL-1β 20 ng/mL, IFNγ 10 ng/mL, 48 hours, Table 2

| Molecule | inhibition at 10 µM [1] | other results |
| --- | --- | --- |
| O=C1O[C@H]2[C@@H]3OC(=O)c4cc(O)c(O)c(O)c4-c4c(cc(O)c(O)c4O)C(=O)OC[C@H]2O[C@@H](OC(=O)c2cc(O)c(O)c(O)c2)[C@@H]3OC(=O)c2cc(O)c(O)c3c2[C@@H]2C1=CC(=O)[C@](O)(O3)C2(O)O [Geranlin, geraniin] | 83% | – |
| stenophyllanin B | – | TEER reduction suppression ratio (%) [2]: 126% |
| Oc1cc(O)c2c(c1)O[C@H](c1ccc(O)c(O)c1)[C@H](O)C2 [Epicatechin, reference compound] | – | inhibition at 10 µM [3]: 14% |
| O=C(O[C@H]1[C@@H]2OC(=O)c3cc(O)c(O)c(O)c3-c3c(cc(O)c(O)c3O)C(=O)OC[C@H]2OC(O)[C@@H]1OC(=O)c1cc(O)c(O)c(O)c1)c1cc(O)c(O)c(O)c1 (some centres unmarked) [Tellimagrandin I, tellimagrandin I] | – | TEER reduction suppression ratio (%) [2]: 65% |
| O=C(OC[C@H]1O[C@@H](O)[C@H](OC(=O)c2cc(O)c(O)c(O)c2)[C@@H](OC(=O)c2cc(O)c(O)c(O)c2)[C@@H]1OC(=O)c1cc(O)c(O)c(O)c1)c1cc(O)c(O)c(O)c1 [2,3,4,6-tetra-O-galloyl-β-D-glucose] | 93% | – |
| O=C(O)c1cc(O)c(O)c(O)c1Oc1cc2c(c(O)c1O)-c1c(cc(O)c(O)c1O)C(=O)O[C@@H]1C(COC2=O)OC(O)C2OC(=O)c3cc(O)c(O)c(O)c3-c3c(cc(O)c(O)c3O)C(=O)O[C@H]21 (some centres unmarked) [Praecoxin A] | 74% | – |
| O=C(O[C@H]1COC(=O)c2cc(O)c(O)c(O)c2-c2c(cc(O)c(O)c2O)C(=O)O[C@H]1C1OC(=O)c2cc(O)c(O)c(O)c2-c2c(O)c(O)c(O)c3c2C(=O)O[C@H]1[C@@H]3c1c(O)cc(O)c2c1OC(c1ccc(O)c(O)c1)C(O)C2)c1cc(O)c(O)c(O)c1 (some centres unmarked) [Stenophyllanin A, stenophyllanin A] | – | TEER reduction suppression ratio (%) [2]: 96% |
| O=C(OC[C@H]1O[C@@H](OC(=O)c2cc(O)c(O)c(O)c2)[C@H](O)[C@@H](O)[C@@H]1OC(=O)c1cc(O)c(O)c(O)c1)c1cc(O)c(O)c(O)c1 [1,4,6-tri-O-galloyl-β-D-glucose] | 56% | – |
| O=C(O[C@@H]1Cc2c(O)cc(O)cc2O[C@@H]1c1ccc(O)c(O)c1)c1cc(O)c(O)c(O)c1 [Epicatechin gallate] | – | Relative value of TEER reduction suppression ratio of gallate type compound (non-gallate type compound taken as 1): 2.5; inhibition at 10 µM [3]: 35% |
| O=C(OC[C@H]1O[C@@H](OC(=O)c2cc(O)c(O)c(O)c2)[C@H](OC(=O)c2cc(O)c(O)c(O)c2)[C@@H](OC(=O)c2cc(O)c(O)c(O)c2)[C@@H]1O)c1cc(O)c(O)c(O)c1 [1,2,3,6-tetra-O-galloyl-β-D-glucose] | 98% | – |
| Oc1cc(O)c2c(c1)O[C@H](c1cc(O)c(O)c(O)c1)[C@@H](O)C2 [Gallocatechin, reference compound] | – | inhibition at 10 µM [3]: 19% |
| Catechin [reference compound] | – | TEER reduction suppression ratio (%) (sample 10 μM, TNFα 40 ng/mL, IL-1β 20 ng/mL, IFNγ 10 ng/mL, 48 hours, Table 2): 15% |
| O=C(OC[C@H]1O[C@@H](OC(=O)c2cc(O)c(O)c(O)c2)[C@H](OC(=O)c2cc(O)c(O)c(O)c2)[C@@H](O)[C@@H]1OC(=O)c1cc(O)c(O)c(O)c1)c1cc(O)c(O)c(O)c1 [1,2,4,6-tetra-O-galloyl-β-D-glucose] | 80% | – |
| O=C(O[C@@H]1Cc2c(O)cc(O)cc2O[C@H]1c1cc(O)c(O)c(O)c1)c1cc(O)c(O)c(O)c1 [Gallocatechin gallate] | – | Relative value of TEER reduction suppression ratio of gallate type compound (non-gallate type compound taken as 1): 3.2; inhibition at 10 µM [3]: 60% |
| O=c1c(O)c(-c2ccc(O)c(O)c2)oc2cc(O)cc(O)c12 [quercetin, reference compound] | 38% | – |
| O=C(OC[C@H]1O[C@@H](OC(=O)c2cc(O)c(O)c(O)c2)[C@H](OC(=O)c2cc(O)c(O)c(O)c2)[C@@H](OC(=O)c2cc(O)c(O)c(O)c2)[C@@H]1OC(=O)c1cc(O)c(O)c(O)c1)c1cc(O)c(O)c(O)c1 [1,2,3,4,6-penta-O-galloyl-β-D-glucose] | 64% | – |
| O=C1OC[C@H]2OC(O)[C@@H]3OC(=O)c4cc(O)c(O)c(O)c4-c4c(cc(O)c(O)c4O)C(=O)O[C@H]3[C@@H]2OC(=O)c2cc(O)c(O)c(O)c2-c2c1cc(O)c(O)c2O (some centres unmarked) [Pedunculagin] | 72% | – |
| O=C(O[C@@H]1COC(=O)c2cc(O)c(O)c(O)c2-c2c(cc(O)c(O)c2O)C(=O)O[C@H]1[C@@H]1OC(=O)c2cc(O)c(O)c(O)c2-c2c(O)c(O)c(O)c3c2C(=O)O[C@H]1[C@@H]3O)c1cc(O)c(O)c(O)c1 [Casuarinin] | 82% | – |
